Experiments:
[1] = target: T1, Enoyl-[acyl-carrier-protein] reductase [NADH] (Mycobacterium tuberculosis, UniProt P9WGR1); test: Inhibition of Mycobacterium tuberculosis Enoyl-[acyl-carrier-protein] reductase
T1 sequence (P9WGR1 whole entry): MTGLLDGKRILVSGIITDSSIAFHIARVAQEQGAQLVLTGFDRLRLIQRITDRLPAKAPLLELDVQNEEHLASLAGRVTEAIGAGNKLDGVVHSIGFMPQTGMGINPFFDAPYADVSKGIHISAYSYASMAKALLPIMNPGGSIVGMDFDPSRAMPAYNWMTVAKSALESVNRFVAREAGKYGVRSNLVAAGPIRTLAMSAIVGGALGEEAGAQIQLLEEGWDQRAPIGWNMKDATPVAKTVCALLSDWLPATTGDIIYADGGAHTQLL

[2] = Inhibition of Mycobacterium tuberculosis acyl-CoA corboxylase corboxyltransferase domain 5

SMILES	Ki [1]	Ki [2]
CCCCCCCCc1ccc(Oc2ccccc2)c(O)c1	0.001 µM	
Nc1ccc(/N=N/c2ccc(-c3ccc(O)cc3)cc2)c2ccc(S(=O)(=O)O)cc12		13 µM

— ChEMBL document CHEMBL1149916, “Natural products, small molecules, and genetics in tuberculosis drug development” (J Med Chem, 2008)
